Reference: PubChem BioAssay AID1963960 (Molecular Pharmacology Branch, DTP, NCI, 2024)

Test system: MDA-MB-468 spheroids with HUVEC/MSC, viability
Assay: Anticancer human tumor MDA-MB-468 cell line growth inhibition [PI3K];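 further: spheroids exposed to agents for seven days before readout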;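 on viability, T/C: 100% = DMSO vehicle control viability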
Conditions: for viability, T/C: stronger effect = lower value
From the text: Combinatorial screen of targeted agents with the PI3K inhibitors inavolisib, alpelisib, duvelisib, and copanlisib in multi-cell type tumor spheroids
A high-throughput screen of multi-cell type tumor spheroids was designed to identify active combinations of targeted small molecules and PI3K pathway inhibitors. Complex spheroids include a stromal component modeled by human endothelial cells (HUVEC) and fibroblasts modeled by human mesenchymal stem cells (MSCs). The concentration ranges selected for each drug and investigational agent were based upon clinically achievable concentrations if the clinical Cmax of the agent was known.
Compounds. The drugs and investigational agents: inavolisib (NSC800729), alpelisib (NSC765974), duvelisib (NSC772469), copanlisib (NSC816437), ipatasertib (NSC767898), afuresertib (NSC778305), talazoparib (NSC767125), sapanisertib (NSC764658), selumetinib (NSC741078), tovorafenib (DAY101, NSC766906), vemurafenib (NSC761431), ravoxertinib (NSC781343), sotorasib (NSC818433), MRTX1133 (NSC 836407), abemaciclib (NSC 768073), palbociclib (NSC758247), venetoclax (NSC 766270), SY5609 (NSC837396), enzalutamide (NSC755605), and darolutamide (NSC825331), were obtained from the National Cancer Institute (NCI) Developmental Therapeutics Program Chemical Repository. The FDA-approved anticancer drug set is available from the NCI Developmental Therapeutics Program. […] The stock solutions were prepared in dimethyl sulfoxide (DMSO, Sigma-Aldrich, St. Louis, MO, cat. D2650) at 800-fold the tested concentration and stored at -70 degrees C prior to their use. All drugs and investigational agents were tested over a range starting from a high concentration at or near the clinical Cmax and decreasing in half-log increments. If the clinical Cmax for an agent had not been determined, the highest concentration tested was 10 microM.
Cell Culture. All cells were maintained in an incubator at 37 degrees C and 5% CO2 with 95% humidity. The PDC lines were cultured according to standard operating procedures established by the NCI PDMR (https://pdmr.cancer.gov/sops/default.htm). All PDCs were thawed and cultured in Matrigel-coated flasks prepared with a working solution of 1X Ham's F-12 nutrient mix, without supplementation (Invitrogen, Waltham, MA, cat. 11765054), 100 U/mL penicillin-streptomycin (Invitrogen, cat. 15140122), and 2.5% Matrigel (Corning Inc., Corning, NY, cat. 354248) for the first three passages. The 354836-022-R-J1-PDC, 475296-252-R-J1-PDC, and 997726-040-R-J2-PDC lines were cultured in 6A media, which includes advanced DMEM/F-12 (Thermo Fisher Scientific, cat. 12634028), 10 mM HEPES (Thermo Fisher Scientific, cat. 15630080), 1X GlutaMAX supplement (Thermo Fisher Scientific, cat. 35050061), 0.1 mg/mL primocin (InvivoGen, San Diego, CA, cat. ant-pm-2), 10% defined fetal bovine serum, heat inactivated (HyClone Laboratories Inc., Logan, UT, cat. SH30070.03HI), 50% L-WRN conditioned media (ATCC, cat. CRL-3276), 1.25 mM N-Acetyl-L-cysteine (Sigma-Aldrich, cat. A9165), 10 mM nicotinamide (Sigma-Aldrich, cat. N0636), 1X B-27 supplement (Thermo Fisher Scientific, cat. 17504044), 1X N-2 supplement (Thermo Fisher Scientific, cat. 17502048), and 10 microM Y-27632 dihydrochloride (Tocris Bioscience, Bristol, United Kingdom, cat. 1254). The 624824-186-R-J2-PDC line was cultured in 6C/Colon 1B media, which includes all 6A media components plus 50 ng/mL human EGF recombinant protein (Thermo Fisher Scientific, cat. PHG0311). […]

[1] = curve of first compound, second compound 0.00316 µM
[2] = curve of first compound, second compound 0.01 µM
[3] = curve of first compound, second compound 0.0316 µM
[4] = curve of first compound, second compound 0.1 µM
[5] = curve of first compound, second compound 0.316 µM
[6] = curve of first compound, second compound 1 µM
[7] = second compound 0.00316 µM, first compound 0.0316 µM
[8] = second compound 0.00316 µM, first compound 0.1 µM
[9] = second compound 0.00316 µM, first compound 0.316 µM
[10] = second compound 0.00316 µM, first compound 1 µM
[11] = second compound 0.00316 µM, first compound 3.16 µM
[12] = second compound 0.00316 µM, first compound 10 µM
[13] = second compound 0.01 µM, first compound 0.0316 µM
[14] = second compound 0.01 µM, first compound 0.1 µM
[15] = second compound 0.01 µM, first compound 0.316 µM
[16] = second compound 0.01 µM, first compound 1 µM
[17] = second compound 0.01 µM, first compound 3.16 µM
[18] = second compound 0.01 µM, first compound 10 µM
[19] = second compound 0.0316 µM, first compound 0.0316 µM
[20] = second compound 0.0316 µM, first compound 0.1 µM
[21] = second compound 0.0316 µM, first compound 0.316 µM
[22] = second compound 0.0316 µM, first compound 1 µM
[23] = second compound 0.0316 µM, first compound 3.16 µM
[24] = second compound 0.0316 µM, first compound 10 µM
[25] = second compound 0.1 µM, first compound 0.0316 µM
[26] = second compound 0.1 µM, first compound 0.1 µM
[27] = second compound 0.1 µM, first compound 0.316 µM
[28] = second compound 0.1 µM, first compound 1 µM
[29] = second compound 0.1 µM, first compound 3.16 µM
[30] = second compound 0.1 µM, first compound 10 µM
[31] = second compound 0.316 µM, first compound 0.0316 µM
[32] = second compound 0.316 µM, first compound 0.1 µM
[33] = second compound 0.316 µM, first compound 0.316 µM
[34] = second compound 0.316 µM, first compound 1 µM
[35] = second compound 0.316 µM, first compound 3.16 µM
[36] = second compound 0.316 µM, first compound 10 µM
[37] = second compound 1 µM, first compound 0.0316 µM
[38] = second compound 1 µM, first compound 0.1 µM
[39] = second compound 1 µM, first compound 0.316 µM
[40] = second compound 1 µM, first compound 1 µM
[41] = second compound 1 µM, first compound 3.16 µM
[42] = second compound 1 µM, first compound 10 µM

Structure (SMILES): CC(C)NCC(C(=O)N1CCN(c2ncnc3c2C(C)CC3O)CC1)c1ccc(Cl)cc1 (stereo not given) + COc1c(OCCCN2CCOCC2)ccc2c3n(c(=NC(=O)c4cnc(N)nc4)nc12)CCN3
- IC50 [1]: 910 nM
- IC50 [2]: 762 nM
- IC50 [3]: 711 nM
- IC50 [4]: 219 nM
- IC50 [5]: < 31.6 nM
- IC50 [6]: < 31.6 nM
- viability, T/C [7]: 89.4%
- viability, T/C [8]: 79.2%
- viability, T/C [9]: 70.6%
- viability, T/C [10]: 47.7%
- viability, T/C [11]: 31.4%
- viability, T/C [12]: 24.2%
- viability, T/C [13]: 83.2%
- viability, T/C [14]: 81.3%
- viability, T/C [15]: 65.4%
- viability, T/C [16]: 44.5%
- viability, T/C [17]: 31.7%
- viability, T/C [18]: 23.6%
- viability, T/C [19]: 76.3%
- viability, T/C [20]: 68.5%
- viability, T/C [21]: 66.4%
- viability, T/C [22]: 42.3%
- viability, T/C [23]: 28.9%
- viability, T/C [24]: 20.2%
- viability, T/C [25]: 57.4%
- viability, T/C [26]: 55.2%
- viability, T/C [27]: 49.1%
- viability, T/C [28]: 34.7%
- viability, T/C [29]: 27.1%
- viability, T/C [30]: 14.7%
- viability, T/C [31]: 27.1%
- viability, T/C [32]: 27%
- viability, T/C [33]: 24.5%
- viability, T/C [34]: 21.2%
- viability, T/C [35]: 15.1%
- viability, T/C [36]: 9.47%
- viability, T/C [37]: 4.25%
- viability, T/C [38]: 3.87%
- viability, T/C [39]: 2.81%
- viability, T/C [40]: 3.58%
- viability, T/C [41]: 3.71%
- viability, T/C [42]: 2.69%

Structure (SMILES): CNC(=O)c1ccc(N2C(=S)N(c3ccc(C#N)c(C(F)(F)F)c3)C(=O)C2(C)C)cc1F + COc1c(OCCCN2CCOCC2)ccc2c3n(c(=NC(=O)c4cnc(N)nc4)nc12)CCN3
- IC50 [1]: > 10000 nM
- IC50 [2]: > 10000 nM
- IC50 [3]: > 10000 nM
- IC50 [4]: > 10000 nM
- IC50 [5]: < 31.6 nM
- IC50 [6]: < 31.6 nM
- viability, T/C [7]: 85.4%
- viability, T/C [8]: 90.6%
- viability, T/C [9]: 88.5%
- viability, T/C [10]: 101%
- viability, T/C [11]: 77.4%
- viability, T/C [12]: 70.8%
- viability, T/C [13]: 81.9%
- viability, T/C [14]: 89.8%
- viability, T/C [15]: 87.8%
- viability, T/C [16]: 86.2%
- viability, T/C [17]: 79.7%
- viability, T/C [18]: 75.6%
- viability, T/C [19]: 82.4%
- viability, T/C [20]: 80.7%
- viability, T/C [21]: 82.8%
- viability, T/C [22]: 80.2%
- viability, T/C [23]: 82.5%
- viability, T/C [24]: 60.7%
- viability, T/C [25]: 52.7%
- viability, T/C [26]: 54.2%
- viability, T/C [27]: 59.5%
- viability, T/C [28]: 57%
- viability, T/C [29]: 59.9%
- viability, T/C [30]: 49.2%
- viability, T/C [31]: 26.4%
- viability, T/C [32]: 27.4%
- viability, T/C [33]: 29.3%
- viability, T/C [34]: 30.1%
- viability, T/C [35]: 29.6%
- viability, T/C [36]: 20.8%
- viability, T/C [37]: 4.39%
- viability, T/C [38]: 4.39%
- viability, T/C [39]: 4.07%
- viability, T/C [40]: 4.23%
- viability, T/C [41]: 4.41%
- viability, T/C [42]: 2.21%

Structure (SMILES): CNC(=O)c1ccc(N2C(=S)N(c3ccc(C#N)c(C(F)(F)F)c3)C(=O)C2(C)C)cc1F + CC(Nc1ncnc2nc[nH]c12)c1cc2cccc(Cl)c2c(=O)n1-c1ccccc1
- IC50 [3]: > 10000 nM
- IC50 [4]: > 10000 nM
- IC50 [5]: > 10000 nM
- IC50 [6]: > 10000 nM
- IC50 (curve of first compound, second compound 3.16 µM): 7730 nM
- IC50 (curve of first compound, second compound 10 µM): < 31.6 nM
- viability, T/C [19]: 78.9%
- viability, T/C [20]: 80%
- viability, T/C [21]: 77.2%
- viability, T/C [22]: 90.6%
- viability, T/C [23]: 89.7%
- viability, T/C [24]: 73.1%
- viability, T/C [25]: 88%
- viability, T/C [26]: 79.8%
- viability, T/C [27]: 73.4%
- viability, T/C [28]: 91.3%
- viability, T/C [29]: 81.1%
- viability, T/C [30]: 63.4%
- viability, T/C [31]: 72%
- viability, T/C [32]: 72.5%
- viability, T/C [33]: 71.5%
- viability, T/C [34]: 77%
- viability, T/C [35]: 70.7%
- viability, T/C [36]: 61.1%
- viability, T/C [37]: 58.2%
- viability, T/C [38]: 64.5%
- viability, T/C [39]: 67.4%
- viability, T/C [40]: 75%
- viability, T/C [41]: 55.5%
- viability, T/C [42]: 56.3%
- viability, T/C (second compound 3.16 µM, first compound 0.0316 µM): 52.6%
- viability, T/C (second compound 3.16 µM, first compound 0.1 µM): 56.3%
- viability, T/C (second compound 3.16 µM, first compound 0.316 µM): 53.4%
- viability, T/C (second compound 3.16 µM, first compound 1 µM): 57.1%
- viability, T/C (second compound 3.16 µM, first compound 3.16 µM): 56.8%
- viability, T/C (second compound 3.16 µM, first compound 10 µM): 42.1%
- viability, T/C (second compound 10 µM, first compound 0.0316 µM): 40.1%
- viability, T/C (second compound 10 µM, first compound 0.1 µM): 35.8%
- viability, T/C (second compound 10 µM, first compound 0.316 µM): 36.1%
- viability, T/C (second compound 10 µM, first compound 1 µM): 38%
- viability, T/C (second compound 10 µM, first compound 3.16 µM): 35.7%
- viability, T/C (second compound 10 µM, first compound 10 µM): 26.9%

Structure (SMILES): C[C@@H](NC(=O)c1ncnc(N)c1Cl)c1ncc(C(=O)Nc2cc(C(F)(F)F)c(Cl)cn2)s1
- viability, T/C (compound 0.0316 µM): 95.6% [middle of 4 runs]
- viability, T/C (compound 0.1 µM): 102% [middle of 4 runs]
- viability, T/C (compound 1 µM): 99.1% [middle of 4 runs]
- IC50 (curve of compound): > 10000 nM
